Data from patent US20260345596A1, “TREATMENT OF LOCALLY ADVANCED OR METASTATIC UROTHELIAL CARCINOMA WITH ERDAFINITIB” (priority 2023, published 2026).

Assays:
[1] = in vivo; cited from earlier work
[2] = tested on: locally advanced or metastatic urothelial carcinoma with selected FGFR3 alterations; test: Study BLC3001 Cohort 2: efficacy of BALVERSA versus pembrolizumab; assay type: in vivo, human; details: (95% CI)
Experimental: Subjects are assigned to Cohort 1 or Cohort 2 based upon prior treatment with an anti-PD-(L)1 agent. […] Cohort 1 and Cohort 2 are assessed independently.

CC(=O)O[C@@]12CO[C@@H]1C[C@H](O)[C@@]1(C)C(=O)[C@H](O)C3=C(C)[C@@H](OC(=O)[C@H](O)[C@@H](NC(=O)OC(C)(C)C)c4ccccc4)C[C@@](O)([C@@H](OC(=O)c4ccccc4)[C@H]21)C3(C)C [Docetaxel]
Cystoid macular edema [1]: Cystoid macular edema has been reported | Severe fluid retention [1]: Severe fluid retention has been reported

CC[C@]12C=CCN3CC[C@@]4(c5cc([C@@]6(C(=O)OC)C[C@@H]7C[C@@H](C(C)(F)F)CN(Cc8c6[nH]c6ccccc86)C7)c(OC)cc5N(C)[C@H]4[C@@](O)(C(=O)OC)[C@@H]1OC(C)=O)[C@@H]32 [Vinflunine]
Posterior reversible encephalopathy syndrome (PRES) [1]: Cases of posterior reversible encephalopathy syndrome (PRES) have been observed

Pembrolizumab: anti-PD-(L)1 agent pembrolizumab, 200 mg every 3 weeks
Median OS [2]: 11.1 (95% CI: 9.7, 13.6) months
